{
  "source": "patent US9034826B2",
  "about": "“Use of epidermal growth factor for the morphofunctional restoration of peripheral nerves in diabetic neuropathy” (Centro de Ingenieria Genetica y Biotecnologia, priority 2006, dated 2015)",
  "format_in_all_cases": "in vivo, Wistar rats",
  "key": {"[1]": {"test_system": "diabetic rats", "assay": "Motor conduction velocity, sciatic-tibial route, prevention study (Example 1)", "details": "75 μg EGF/ml, day 60", "procedure": "(§1) Male Wistar, with 200-250 grams of body weight, received a subcutaneous injection of streptozotocin, at 75 mg/kg in sodium citrate buffer. Water was then replaced by a 10% sucrose solution during the next 24 h, to prevent deaths caused by hypoglycemia. Glucose levels in blood were monitored every morning during the next 72 hours after the injection. Only animals with sustained glucose values above 15 mmol/L were used. Rats were housing at 4 per cage and fed in the conventional way. A concurrent group of other 80 rats received citrate buffer without streptozotocin and was handled in a similar fashion to the diabetic group. The average value for glycemia during the 72 hours in this group was 5.87 mmol/L.\n(§2) All treatments were conducted during 8 weeks, starting one week after streptozotocin injection. The composition used contained 75 μg of human recombinant EGF/ml. Several types of observations were conducted in the animals under study:\n(§3) Fifteen animals were used in each experimental group. In diabetic neuropathy conduction velocity is generally diminished.\n(§4) Distal supra-maximal stimulation in the sciatic-tibial route using bipolar electrodes is was used to study motor conduction. Determination of the conduction velocity in the sensory routes was carried out by applying a stimulus at a proximal point in the tail and measure it 3 cm away."}, "[2]": {"test_system": "diabetic rats", "assay": "Sensory conduction velocity in the tail, prevention study (Example 1)", "details": "75 μg EGF/ml, day 60", "procedure": "as §1, §2, §3, §4"}, "[3]": {"test_system": "Lipoprotein Lipase (LPL)", "assay": "Lipoprotein lipase (LPL) enzymatic activity in sciatic nerve fragments, prevention study (Example 1)", "procedure": "as §1, §2\nFragments of the nerve from each animal were incubated together with 3 μg/ml heparin in Krebs-Ringer buffer at 37° C. for 50 minutes. Aliquots from these samples were then incubated in the presence of [^14C] triolein-phosphatidylcholine. ^14C labeled fatty acids were quantified by the classic methods. LPL activity was expressed in nanomoles of released fatty acids (RFA) per minute and gram of tissue."}, "[4]": {"test_system": "diabetic rats", "assay": "Nociceptive threshold (NCT) pain test, reversion of established diabetic neuropathy (Example 2)", "details": "100 μg EGF in 1 ml i.p. 3 days a week for one month, day 120 after induction of diabetes", "procedure": "The pain test, by application of an increasing pressure in the tail, was carried out at days 28 and 56 after initiation of the treatment, using 10 animals per each one of the experimental groups. NCT, expressed in grams, was determined by using an Ugo Basile type analgesimeter to apply a gradually increasing pressure to the tail of the animals until they developed a withdrawal reflex. In human diabetic neuropathy the nociceptive threshold is reduced.\n(§5) The aim of this study was to evaluate the neurorestoration effect of the pharmaceutical composition. Male Wistar rats between 200-250 grams of body is weight received a subcutaneous injection of streptozotocin at 75 mg/kg in sodium citrate buffer, and were allowed to evolve until 120 days after disease induction. All rats used in this experiment had shown sustained glucose levels above 15 mmol/L. Animals were handled and fed as previously described. A concurrent control group was set, where animals received saline instead of streptozotocin. […] After this period an electrophysiological characterization of all rats were done and animals were split in two random treatment groups:\nGroup II. Animals received the pharmaceutical composition with 100 μg of EGF in 1 ml, 3 days a week, by intraperitoneal route. […]"}, "[5]": {"test_system": "diabetic rats", "assay": "Conduction velocity of motor fibers, reversion study (Example 2)", "details": "established diabetic neuropathy, 100 μg EGF in 1 ml i.p. 3 days a week for one month, day 120 after induction of diabetes", "procedure": "as §4, §5\n(§6) Group II. Animals received the pharmaceutical composition with 100 μg of EGF in 1 ml, 3 days a week, by intraperitoneal route.\nTo check the effect of the pharmaceutical composition on the restoration of sensory and motor fibers the conduction velocity of an electric impulse was measured at day 120 after induction of diabetes, after treating the animals with the pharmaceutical composition or saline. […]"}, "[6]": {"test_system": "Redox state in fragments of sciatic nerve", "assay": "Redox profile in fragments of sciatic nerve, reversion study (Example 2)", "details": "established diabetic neuropathy, 100 μg EGF in 1 ml i.p. 3 days a week for one month", "procedure": "as §5, §6\nOne month after conclusion of the treatment with either EGF containing composition or saline, and […] after disease induction, animals were sacrificed by an overdose of anesthesia and perfused with saline buffer pH 7.4. A total of ten animals per experimental group were included for histomorphometric studies, and an equivalent number of rats were used for biochemical determinations. In both systems the sciatic nerves from both limbs were dissected. The procedures were similar to those described for the neuropathic damage prevention assay. Samples taken for histological and o histomorphometric studies were stained with hematoxilin/eosin and toluidine blue. At least five fragments of the same nerve were quantitatively studied using MADIP program. The fragments were included in OCT blocks, post-fixed with glutaraldehyde, and sliced horizontal and transversally. The histological indicators assessed have been described above as well as the procedures used for the processing and evaluation: • Total number of blood vessels (in epineural/perineural) in 10 microscopic fields using 10× as constant magnification in longitudinal cuts of the nerve. • Percentage of demyelinated fibers. Evaluated by averaging the values per microscopic field (×20, at least five fields). • Percentage of myelin or non-myelin fibers with lesions (dilated or distorted) per microscopic field (×20, at least five fields). • Percentage of endoneurial collagenization (moderated: 25 to 50%; severe: more than 50% of the endoneurial area in transversal slices, and at least three different sections.\nTen animals from each group were used for the biochemical determinations in the is fragments of the sciatic nerve collected. The following biochemical parameters were studied:\nRedox Profile: • Total Superoxide Dismutase (tSOD) enzymatic activity total. • Catalase enzymatic activity. • Intra-axonal accumulation of total hydroperoxides (THP). • Intra-axonal accumulation of malonyldialdehyde (MDA)."}, "[7]": {"details": "1 ml i.p. once weekly (Treatment group 1)"}, "[8]": {"details": "1 ml i.p. three times a week (Treatment group 3)"}},
  "data": [
    {"substance": "EGF containing pharmaceutical composition: Composition with human recombinant EGF: 75 μg/ml in Example 1, 100 μg in 1 ml in Example 2, given intraperitoneally", "values": [
      {"measurement": "MCV (motor conduction velocity)", "setting": "[1]; [7]", "result": "45 ± 13", "unit": "m/s"},
      {"measurement": "MCV (motor conduction velocity)", "setting": "[1]; [8]", "result": "56 ± 11", "unit": "m/s"},
      {"measurement": "SCV (sensitive conduction velocity)", "setting": "[2]; [7]", "result": "38 ± 6", "unit": "m/s"},
      {"measurement": "SCV (sensitive conduction velocity)", "setting": "[2]; [8]", "result": "44 ± 9", "unit": "m/s"},
      {"measurement": "LPL activity in the sciatic nerve", "setting": "[3]; Treatment group 1 (once weekly i.p., 8 weeks)", "result": "3.75 ± 2.2", "unit": "nmoles RFA/min/g"},
      {"measurement": "LPL activity in the sciatic nerve", "setting": "[3]; Treatment group 3 (three times a week i.p., 8 weeks)", "result": "5.41 ± 1.83", "unit": "nmoles RFA/min/g"},
      {"measurement": "UNC (NCT test)", "setting": "[4]", "result": "80 ± 5", "unit": "grams"},
      {"measurement": "Velocity (conduction velocity of motor fibers)", "setting": "[5]", "result": "54.8 ± 1.66", "unit": "m/s"},
      {"measurement": "Catalase activity", "setting": "[6]", "result": "86.1 ± 6.5 units per milligram of protein per minute"},
      {"measurement": "MDA (malonyldialdehyde)", "setting": "[6]", "result": "0.1 ± 0.03 nmol/mg of protein"},
      {"measurement": "THP (total hydroperoxides)", "setting": "[6]", "result": "55.8 ± 12.7 nmol/mg of protein"},
      {"measurement": "tSOD (total Superoxide Dismutase activity)", "setting": "[6]", "result": "1988.4 ± 101.6 units per milligram of protein per minute"}
    ]}
  ]
}
